pEC50: −log10 of the molar value.
Assays:
human FPR1 receptors = target: T1, human FPR1 receptors (Homo sapiens, UniProt P21462); test: FPR1 cyclic adenosine monophosphate (cAMP) assay; type: cell-based; conditions: CHO cells overexpressing human FPR1; forskolin 10 μM, IBMX 200 μM; 30 min at rt; inhibition of cAMP production (HTRF); read-out: hFPR1 cAMP EC50
T1 sequence (P21462 1-350): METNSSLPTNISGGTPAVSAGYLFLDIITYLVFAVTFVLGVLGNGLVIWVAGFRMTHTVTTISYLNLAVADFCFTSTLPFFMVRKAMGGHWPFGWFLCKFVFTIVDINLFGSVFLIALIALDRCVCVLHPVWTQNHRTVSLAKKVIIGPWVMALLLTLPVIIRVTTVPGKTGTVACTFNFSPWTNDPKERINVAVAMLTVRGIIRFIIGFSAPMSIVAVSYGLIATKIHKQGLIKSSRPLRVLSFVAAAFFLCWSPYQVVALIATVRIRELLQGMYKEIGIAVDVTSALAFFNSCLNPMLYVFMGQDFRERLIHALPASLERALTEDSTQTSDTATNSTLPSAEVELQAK
From the text: (§1) N-formyl peptide receptors (FPRs) are a family of chemo attractant receptors that facilitate leukocyte response during inflammation. FPRs belong to the seven-transmembrane G protein-coupled receptor superfamily and are linked to inhibitory G-proteins (Gi). Three family members (FPR1, FPR2 and FPR3) have been identified in humans and are predominantly found in myeloid cells with varied distribution and have also been reported in multiple organs and tissues. After agonist binding, the FPRs activate a multitude of physiological pathways, such as intra cellular signaling transduction, Ca^2+ mobilization and transcription. The family interacts with a diverse set of ligands that includes proteins, polypeptides and fatty acid metabolites which activate both pro-inflammatory and pro-resolution downstream responses. FPR2 and FPR1 Cyclic Adenosine Monophosphate (cAMP) Assays were used to measure the activity of the compounds in this patent.
(§2) FPR2 and FPR1 Cyclic Adenosine Monophosphate (cAMP) Assays. A mixture of forskolin (5 μM final for FPR2 or 10 μM final for FPR1) and IBMX (200 μM final) were added to 384-well Proxiplates (Perkin-Elmer) pre-dotted with test compounds in DMSO (1% final) at final concentrations in the range of 0.020 nM to 100 μM. Chinese Hamster Ovary cells (CHO) overexpressing human FPR1 or human FPR2 receptors were cultured in F-12 (Ham's) medium supplemented with 10% qualified FBS, 250 μg/mL zeocin and 300 μg/mL hygromycin (Life Technologies). Reactions were initiated by adding 2,000 human FPR2 cells per well or 4,000 human FPR1 cells per well in Dulbecco's PBS (with calcium and magnesium) (Life Technologies) supplemented with 0.1% BSA (Perkin-Elmer). The reaction mixtures were incubated for 30 min at rt. The level of intracellular cAMP was determined using the HTRF HiRange cAMP assay reagent kit (Cisbio) according to manufacturer's instruction. Solutions of cryptate conjugated anti-cAMP and d2 flurorophore-labelled cAMP were made in a supplied lysis buffer separately. Upon completion of the reaction, the cells were lysed with equal volume of the d2-cAMP solution and anti-cAMP solution. After a 1-h rt incubation, time-resolved fluorescence intensity was measured using the Envision (Perkin-Elmer) at 400 nm excitation and dual emission at 590 nm and 665 nm. A calibration curve was constructed with an external cAMP standard at concentrations ranging from 1 μM to 0.1 μM by plotting the fluorescent intensity ratio from 665 nm emission to the intensity from the 590 nm emission against cAMP concentrations. The potency and activity of a compound to inhibit cAMP production was then determined by fitting to a 4-parametric logistic equation from a plot of cAMP level versus compound concentrations.
(§3) The examples disclosed below were tested in the FPR2 and FPR1 cAMP assay described above and found having FPR2 and/or FPR1 agonist activity. Table 1 below lists EC50 values in the FPR2 and FPR1 cAMP assays measured for the following examples.

human FPR2 receptors = target: T2, human FPR2 receptors (Homo sapiens, UniProt P25090); test: FPR2 cyclic adenosine monophosphate (cAMP) assay; type: cell-based; conditions: CHO cells overexpressing human FPR2; forskolin 5 μM, IBMX 200 μM; 30 min at rt; inhibition of cAMP production (HTRF); read-out: hFPR2 cAMP2 EC50
T2 sequence (P25090 1-351): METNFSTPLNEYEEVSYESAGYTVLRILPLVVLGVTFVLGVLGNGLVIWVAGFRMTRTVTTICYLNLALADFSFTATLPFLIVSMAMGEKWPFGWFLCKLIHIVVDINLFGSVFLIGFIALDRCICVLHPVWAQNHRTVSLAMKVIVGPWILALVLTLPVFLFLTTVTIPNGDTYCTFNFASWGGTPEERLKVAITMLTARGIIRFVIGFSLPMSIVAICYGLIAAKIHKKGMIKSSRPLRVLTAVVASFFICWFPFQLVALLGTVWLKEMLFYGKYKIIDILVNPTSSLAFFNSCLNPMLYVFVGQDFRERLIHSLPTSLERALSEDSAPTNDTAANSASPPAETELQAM
From the text: as §1, §2, §3

| SMILES | pEC50 (human FPR1 receptors) | pEC50 (human FPR2 receptors) |
| --- | --- | --- |
| CP(C)(=O)c1ccccc1-c1cc(F)c(N2CCC[C@@H](NC(=O)Nc3ncc(Cl)cc3F)C2=O)c(F)c1 [Example 20, 1-(5-Chloro-3-fluoropyridin-2-yl)-3-[(3R)-1-[2′-(dimethylphosphoryl)-3,5-difluoro-[1,1′-biphenyl]-4-yl]-2-oxopiperidin-3-yl]urea] | < 5.00 | 7.36 |
| CP(C)(=O)c1ccccc1-c1cc(F)c(N2CCC[C@@H](NC(=O)Nc3ccc(OC(F)(F)F)cc3)C2=O)c(F)c1 [Example 21, 3-[(3R)-1-[2′-(Dimethylphosphoryl)-3,5-difluoro-[1,1′-biphenyl]-4-yl]-2-oxopiperidin-3-yl]-1-[4-(trifluoromethoxy)phenyl] urea] | < 5.00 | 7.66 |

From US20220298186A1, “BIARYL DIALKYL PHOSPHINE OXIDE FPR2 AGONISTS” (BRISTOL-MYERS SQUIBB COMPANY, priority 2019, published 2022)
